Data as given in patent US20230398099A1, “METHODS OF TREATING CONDITIONS RELATED TO THE S1P1 RECEPTOR” (Arena Pharmaceuticals, Inc., priority 2020, published 2023).
Where two headings read alike, the source gives them in different places.

Experiments:
hS1PR1 = hS1PR1 (Homo sapiens, UniProt P21453); assay: b-arrestin recruitment assay; format: cell-based; conditions: for EC50: b-arrestin recruitment, hS1PR1, EC50 [95% confidence interval] (n)
hS1PR4 = biological target: T1, hS1PR4 (Homo sapiens, UniProt O95977); assay: b-arrestin recruitment assay; format: cell-based; conditions: for EC50: EC50 [95% confidence interval] (n)
T1 sequence (O95977 1-384): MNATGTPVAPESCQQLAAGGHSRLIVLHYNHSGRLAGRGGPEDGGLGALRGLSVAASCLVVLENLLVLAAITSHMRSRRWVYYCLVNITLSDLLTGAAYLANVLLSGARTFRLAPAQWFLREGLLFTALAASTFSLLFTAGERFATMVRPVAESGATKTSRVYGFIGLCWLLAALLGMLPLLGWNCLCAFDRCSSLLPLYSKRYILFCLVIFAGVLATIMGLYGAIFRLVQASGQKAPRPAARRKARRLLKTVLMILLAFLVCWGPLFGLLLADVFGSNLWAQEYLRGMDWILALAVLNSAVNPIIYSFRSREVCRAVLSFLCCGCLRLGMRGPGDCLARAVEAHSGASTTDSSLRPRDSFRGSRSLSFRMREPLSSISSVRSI

hS1PR5 = hS1PR5 (Homo sapiens, UniProt Q9H228); assay: b-arrestin recruitment assay; format: cell-based; conditions: for EC50: EC50 [95% confidence interval] (n)
Chain of hS1PR5 (Q9H228 whole entry): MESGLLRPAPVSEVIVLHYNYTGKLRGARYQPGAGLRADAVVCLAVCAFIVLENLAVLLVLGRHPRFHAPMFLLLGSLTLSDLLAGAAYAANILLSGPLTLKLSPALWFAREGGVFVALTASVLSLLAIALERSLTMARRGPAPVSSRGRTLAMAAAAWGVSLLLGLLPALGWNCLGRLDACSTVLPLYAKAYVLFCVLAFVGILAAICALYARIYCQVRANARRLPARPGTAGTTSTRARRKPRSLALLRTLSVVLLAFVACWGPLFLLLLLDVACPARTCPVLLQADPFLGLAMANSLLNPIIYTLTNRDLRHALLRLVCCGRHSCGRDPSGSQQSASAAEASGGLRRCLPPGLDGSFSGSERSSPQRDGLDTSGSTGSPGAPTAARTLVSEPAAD

S1P2 Receptor = S1P2 Receptor (Homo sapiens, UniProt O95136); assay: S1P2 receptor internalization; format: cell-based; conditions: N 5
Chain of S1P2 Receptor (O95136 whole entry): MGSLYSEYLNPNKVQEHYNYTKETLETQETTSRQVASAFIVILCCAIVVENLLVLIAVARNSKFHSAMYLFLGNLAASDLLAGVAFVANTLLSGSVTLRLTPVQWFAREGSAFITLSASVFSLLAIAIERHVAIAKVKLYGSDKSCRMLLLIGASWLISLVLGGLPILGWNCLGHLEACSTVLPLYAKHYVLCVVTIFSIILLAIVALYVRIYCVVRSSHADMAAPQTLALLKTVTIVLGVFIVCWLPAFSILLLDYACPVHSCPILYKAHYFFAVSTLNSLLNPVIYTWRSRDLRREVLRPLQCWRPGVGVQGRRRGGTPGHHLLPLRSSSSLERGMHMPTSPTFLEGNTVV

hS1P1 = hS1P1 (Homo sapiens, UniProt P21453); assay: S1P1 GTPgS binding assay; format: biochemical; conditions: for EC50: S1P1 GTPgS binding, EC50 [95% confidence interval] (n)
Chain of hS1P1 (P21453 whole entry): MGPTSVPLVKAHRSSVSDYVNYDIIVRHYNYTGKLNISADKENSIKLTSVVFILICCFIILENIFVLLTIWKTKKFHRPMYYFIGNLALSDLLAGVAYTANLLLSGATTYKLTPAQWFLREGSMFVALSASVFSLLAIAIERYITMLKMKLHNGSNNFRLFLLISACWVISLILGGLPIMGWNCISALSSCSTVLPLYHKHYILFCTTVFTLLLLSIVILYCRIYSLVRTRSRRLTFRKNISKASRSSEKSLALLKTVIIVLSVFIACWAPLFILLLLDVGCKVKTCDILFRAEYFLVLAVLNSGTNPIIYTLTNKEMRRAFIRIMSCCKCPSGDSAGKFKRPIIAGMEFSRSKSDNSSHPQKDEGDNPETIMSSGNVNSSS

[1] = system: FITC-induced contact hypersensitivity (CHS)/dermatitis in BALB/c mice; assay: mouse model of FITC-induced contact dermatitis; format: in vivo; conditions: for skin thickening (ear thickening): FIG. 8
Description: Fluorescein isothiocyanate isomer I (FITC) was used to induce contact hypersensitivity (CHS)/dermatitis in BALB/c mice by administering two sensitizing applications of the hapten onto the shaved flanks of the animals on Days 0 and 5, followed by three days of FITC challenge on the dorsal surface of both ears on Days 10-12. […] Treatment was initiated on Day −1 to model prophylactic treatment.

[2] = system: OVA-induced acute asthma model in mice; assay: ovalbumin (OVA)-induced acute asthma model; format: in vivo, mouse; conditions: QD Day 12-15; for immune cells in bronchoalveolar lavage (BAL): FIG. 9
Description: The OVA model is a widely used pre-clinical allergic asthma model and recapitulates many of the hallmarks of allergic asthma in humans. These include elevated IgE and TH2 related cytokines, mucus hypersecretion, airway inflammation, goblet cell hyperplasia, epithelial hypertrophy, and airway hyperreactivity to stimuli.
Mice were sensitized with an intraperitoneal (IP) injection of OVA and adjuvant on days 0 and 7. Mice were then challenged with intranasal delivery of OVA (10-200 μg) in saline on days 13-15 with endpoints conducted on day 16. Endpoints in this model generally included total and differential cell counts as well as inflammatory mediator content in the broncho-alveolar lavage fluid, airway hyperreactivity and detailed lung mechanics measured with the flexiVent™ rodent mechanical ventilator as well as histopathology and immunohistochemistry on lung sections.

hS1PR2 = hS1PR2 (Homo sapiens, UniProt O95136); assay: b-arrestin recruitment assay; format: cell-based
Chain of hS1PR2 (O95136 whole entry): as the sequence (O95136 whole entry) above

hS1PR3 = hS1PR3 (Homo sapiens, UniProt Q99500); assay: b-arrestin recruitment assay; format: cell-based
Chain of hS1PR3 (Q99500 whole entry): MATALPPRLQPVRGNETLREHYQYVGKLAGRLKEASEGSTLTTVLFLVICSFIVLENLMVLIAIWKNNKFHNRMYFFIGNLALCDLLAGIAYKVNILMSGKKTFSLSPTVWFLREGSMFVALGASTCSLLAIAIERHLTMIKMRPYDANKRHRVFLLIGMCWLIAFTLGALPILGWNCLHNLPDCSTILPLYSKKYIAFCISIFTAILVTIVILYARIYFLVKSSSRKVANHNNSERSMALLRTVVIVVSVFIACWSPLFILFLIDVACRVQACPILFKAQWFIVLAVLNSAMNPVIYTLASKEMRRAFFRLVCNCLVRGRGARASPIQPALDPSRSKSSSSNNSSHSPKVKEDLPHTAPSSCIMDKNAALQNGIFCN

[3] = 1 mg/kg daily oral, compared to vehicle, dose-dependent, FIG. 6
[4] = 1 mg/kg daily oral, compared to vehicle, dose-dependent, FIG. 7

Chain of hS1PR1 (P21453 whole entry): as the sequence (P21453 whole entry) above

Structure (SMILES): CC(C)Cc1ccc(-c2nc(-c3ccc(CN4CC(C(=O)O)C4)c(F)c3)no2)cc1 [Compound 1, 1-{2-fluoro-4-[5-(4-isobutylphenyl)-1,2,4-oxadiazole-3-yl]benzyl}-3-azetidinecarboxylic acid]
- Emax (hS1PR1): 128%
- EC50 (hS1PR1): 6.2 nM
- EC50 (hS1PR4; b-arrestin recruitment, hS1PR4): 3.2 nM
- Emax (hS1PR4; read-out: Emax): 104%
- EC50 (hS1PR5; b-arrestin recruitment, hS1PR5): 0.71 nM
- Emax (hS1PR5; read-out: Emax): 120%
- EC50 (S1P2 Receptor): 2510 nM
- Efficacy, % of S1P (S1P2 Receptor): 65%
- Emax (hS1P1): 98%
- EC50 (hS1P1): 1.8 nM
- skin thickening (ear thickening) ([1]; 0.1 mg/kg daily oral): had no effect
- B cells in the skin [1, 3]: reduced
- T cells in the skin [1, 3]: reduced
- WBC count [1, 4]: reduced
- lymphocyte frequency [1, 4]: reduced
- skin thickening (ear thickening) ([1]; 1 mg/kg daily oral): reduced skin thickening
- immune cells in bronchoalveolar lavage (BAL) ([2]; 0.1 mg/kg PO): did not have significant effect
- immune cells in bronchoalveolar lavage (BAL) ([2]; 1 mg/kg PO): did not have significant effect
- lung function measured by airway resistance or elastance ([2]; PO, Methacholine challenge, FIG. 10): no significant effect

Structure (SMILES): CCCCCCCCCCCCC/C=C/[C@@H](O)[C@@H](N)COP(=O)(O)O [Compound S1P, sphingosine-1-phosphate]
- Emax (hS1PR1): 113%
- EC50 (hS1PR1): 18.3 nM
- Emax (hS1PR2): 108%
- Emax (hS1PR3): 113%
- EC50 (hS1PR3; b-arrestin recruitment, hS1PR3, EC50 [95% confidence interval] (n)): 13.9 nM
- EC50 (hS1PR4; b-arrestin recruitment, hS1PR4): 0.99 nM
- Emax (hS1PR4; read-out: Emax): 117%
- Emax (hS1PR5; read-out: Emax): 114%
- Efficacy, % of S1P (S1P2 Receptor): 100%
- Emax (hS1P1): 102%
- EC50 (hS1P1): 77 nM

Structure (SMILES): CCCCCCCCc1ccc(CC[C@](N)(CO)COP(=O)(O)O)cc1 [Fingolimod(P)]
- Emax (hS1PR4; b-arrestin recruitment, hS1PR4, % relative to S1P): 94%
- EC50 (hS1PR4; b-arrestin recruitment, hS1PR4): 0.76 nM
- Emax (hS1PR5; b-arrestin recruitment, hS1PR5, % relative to S1P): 62%
- Efficacy, % of S1P (S1P2 Receptor): 80%

Structure (SMILES): CC(C)Oc1ccc(-c2nc(-c3cccc4c3CC[C@@H]4NCCO)no2)cc1C#N [Ozanimod]
- Emax (hS1PR1): 130%
- EC50 (hS1PR4; b-arrestin recruitment, hS1PR4): 117 nM
- Emax (hS1PR4; read-out: Emax): 93%
- EC50 (hS1PR5; b-arrestin recruitment, hS1PR5): 7.3 nM
- Emax (hS1PR5; read-out: Emax): 117%
- Emax (hS1P1): 104%
